Holding throughout (type): biochemical
The target of experiment [1] is T1, TrkA (Homo sapiens, UniProt P04629).
T1 construct: purchased Invitrogen
Put plainly: HTRF KinEASE kinase assay, TrkA enzyme. The conditions noted are these: recombinant Human TRK enzyme, NTRK1 4 nM, read-out: TrkA Enz (nM), Trk inhibition activity expressed as IC50. Here is the method: (§1) To determine the IC50 of small molecule compounds for the Human TRK receptors, HTRF® KinEASE™ kinase kits from Cisbio were used. Assays were carried out in low volume, black 384-well plates.
(§2) Recombinant Human TRK enzymes (Invitrogen) were incubated in the presence or absence of the compound (11-point dose response with FAC as 10 μM) for 30 minutes at 23° C. Kinase reaction was started by addition of ATP to a mixture containing the enzyme (NTRK1-4 nM, NTRK2-1 nM, NTRK3-10 nM) and substrate (1 μM). Kinase reaction was allowed to carry on for 10 to 45 minutes at 23° C. after which it was stopped by addition of the detection mix (supplied by vendor) containing EDTA, TK-Ab-labelled with Eu^3+-cryptate (1:200 dilutions) and Streptavidin-XL665 (250 nM). Assay plates were incubated in this detection mix for 60 minutes at 23° C. The resulting TR-FRET signal, calculated as the fluorescence ratio at 665/620 nm, was read on an Envision and was proportional to the level of phosphorylation of the peptide in the presence or absence of the compound. The uniformity of the plates were assured with Z′ value [1-{3*(SDHPE+SDZPE)/(ZPE-HPE)}]. The percent (%) effect i.e. Inhibition of compound was calculated in comparison to the signal in the positive (HPE) and negative control (ZPE) wells within each assay plate. The endpoint value % Inhibition for the Standard compound was evaluated in each experiment as a quality control measure. IC50 was determined by plotting compound inhibition at respective dose in Graphpad prism5 using four parameter logistic curve fit.
(TR-FRET usually uses a lanthanide donor and a delayed reading to cut background.)

The target of experiment [2] is T2, TrkB (Homo sapiens, UniProt Q16620).
T2 construct: purchased Invitrogen
Put plainly: HTRF KinEASE kinase assay, TrkB enzyme. The conditions noted are these: recombinant Human TRK enzyme, NTRK2 1 nM, read-out: TrkB Enz (nM), Trk inhibition activity expressed as IC50. Here is the method: as §1, §2

The target in experiment [3] is T3, TrkC (Homo sapiens, UniProt Q16288).
T3 construct: purchased Invitrogen
Put plainly: HTRF KinEASE kinase assay, TrkC enzyme. The conditions noted are these: recombinant Human TRK enzyme, NTRK3 10 nM, read-out: TrkC Enz (nM), Trk inhibition activity expressed as IC50. Here is the method:
as §1, §2

T1 sequence (P04629 33-796): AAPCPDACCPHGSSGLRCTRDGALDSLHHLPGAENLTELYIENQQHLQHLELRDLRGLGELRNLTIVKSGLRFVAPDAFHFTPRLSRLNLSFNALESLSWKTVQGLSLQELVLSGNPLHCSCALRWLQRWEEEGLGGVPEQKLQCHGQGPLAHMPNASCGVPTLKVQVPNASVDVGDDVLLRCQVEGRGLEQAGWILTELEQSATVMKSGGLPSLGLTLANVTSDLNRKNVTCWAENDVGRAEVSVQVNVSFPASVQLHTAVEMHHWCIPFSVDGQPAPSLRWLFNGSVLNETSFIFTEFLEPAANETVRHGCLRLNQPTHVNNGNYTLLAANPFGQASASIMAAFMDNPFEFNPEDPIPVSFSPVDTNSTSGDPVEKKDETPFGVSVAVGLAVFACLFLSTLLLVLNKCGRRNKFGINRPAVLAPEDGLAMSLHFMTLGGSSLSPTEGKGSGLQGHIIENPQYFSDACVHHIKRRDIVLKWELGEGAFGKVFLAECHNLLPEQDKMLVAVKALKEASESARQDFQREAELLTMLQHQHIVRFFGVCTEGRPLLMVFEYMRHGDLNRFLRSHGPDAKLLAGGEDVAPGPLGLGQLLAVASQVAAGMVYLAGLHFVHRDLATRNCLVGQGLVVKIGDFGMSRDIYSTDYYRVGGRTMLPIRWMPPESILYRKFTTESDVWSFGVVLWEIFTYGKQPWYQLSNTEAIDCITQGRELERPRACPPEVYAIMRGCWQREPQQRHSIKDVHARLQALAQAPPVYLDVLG
T2 sequence (Q16620 32-822): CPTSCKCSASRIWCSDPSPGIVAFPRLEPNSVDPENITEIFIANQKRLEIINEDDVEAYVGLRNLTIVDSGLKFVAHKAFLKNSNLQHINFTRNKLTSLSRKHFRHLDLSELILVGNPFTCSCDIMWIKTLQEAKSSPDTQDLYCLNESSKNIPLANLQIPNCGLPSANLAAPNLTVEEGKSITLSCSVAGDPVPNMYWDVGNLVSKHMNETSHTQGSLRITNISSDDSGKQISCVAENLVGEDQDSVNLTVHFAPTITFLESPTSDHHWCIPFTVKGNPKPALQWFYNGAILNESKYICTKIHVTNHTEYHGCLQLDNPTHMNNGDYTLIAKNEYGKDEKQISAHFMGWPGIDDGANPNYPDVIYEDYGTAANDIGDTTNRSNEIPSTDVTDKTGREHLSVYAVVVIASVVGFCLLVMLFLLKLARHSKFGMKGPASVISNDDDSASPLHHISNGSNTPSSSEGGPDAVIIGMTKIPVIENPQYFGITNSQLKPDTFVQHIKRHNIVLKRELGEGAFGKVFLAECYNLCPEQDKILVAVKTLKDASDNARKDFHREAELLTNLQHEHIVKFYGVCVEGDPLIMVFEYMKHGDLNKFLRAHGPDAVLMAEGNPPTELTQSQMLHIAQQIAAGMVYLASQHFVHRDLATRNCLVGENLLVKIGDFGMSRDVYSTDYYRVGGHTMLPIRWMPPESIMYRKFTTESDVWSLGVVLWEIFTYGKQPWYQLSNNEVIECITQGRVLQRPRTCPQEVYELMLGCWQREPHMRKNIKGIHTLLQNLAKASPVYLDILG
T3 sequence (Q16288 32-839): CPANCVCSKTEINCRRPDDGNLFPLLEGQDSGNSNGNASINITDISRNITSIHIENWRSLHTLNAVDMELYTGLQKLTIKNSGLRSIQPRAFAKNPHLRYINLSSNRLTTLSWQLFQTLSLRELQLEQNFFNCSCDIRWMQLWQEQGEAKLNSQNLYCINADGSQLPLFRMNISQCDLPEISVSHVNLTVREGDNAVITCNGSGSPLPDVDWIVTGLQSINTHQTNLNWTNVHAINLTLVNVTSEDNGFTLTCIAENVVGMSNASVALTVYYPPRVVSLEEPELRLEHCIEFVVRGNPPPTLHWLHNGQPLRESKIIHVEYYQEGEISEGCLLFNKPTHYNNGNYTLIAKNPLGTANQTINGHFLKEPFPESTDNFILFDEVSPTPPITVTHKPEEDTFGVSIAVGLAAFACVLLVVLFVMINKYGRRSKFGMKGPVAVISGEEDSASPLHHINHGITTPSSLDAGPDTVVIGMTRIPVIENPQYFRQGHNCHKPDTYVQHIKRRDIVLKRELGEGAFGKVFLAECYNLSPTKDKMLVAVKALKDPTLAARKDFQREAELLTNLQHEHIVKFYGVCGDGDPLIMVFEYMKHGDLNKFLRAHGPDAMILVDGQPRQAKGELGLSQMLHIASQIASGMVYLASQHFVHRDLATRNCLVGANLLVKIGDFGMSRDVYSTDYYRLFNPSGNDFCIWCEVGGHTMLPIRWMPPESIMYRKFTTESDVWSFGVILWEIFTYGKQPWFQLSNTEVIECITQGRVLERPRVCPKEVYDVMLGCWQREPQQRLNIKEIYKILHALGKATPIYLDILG

Take `CSc1ccc(F)cc1[C@H]1CCCN1c1ccc2ncc(/C(=N/C#N)N[C@@H]3CCCOC3)n2n1` [Example 1, (Z)-N′-cyano-6-[(2R)-2-[5-fluoro-2-(methylsulfanyl)phenyl]pyrrolidin-1-yl]-N-[(3R)-oxan-3-yl]imidazo[1,2-b]pyridazine-3-carboximidamide]: the IC50 (in general, the midpoint of a concentration-inhibition curve) was determined as 0.95 nM in experiment [1], 0.88 nM in experiment [2] and 1.6 nM in experiment [3].
For `CSc1ccc(F)cc1[C@H]1CCCN1c1ccc2ncc(/C(=N/C#N)N[C@H]3CCCOC3)n2n1` [Example 2, (Z)-N′-cyano-6-[(2R)-2-[5-fluoro-2-(methylsulfanyl)phenyl]pyrrolidin-1-yl]-N-[(3S)-oxan-3-yl]imidazo[1,2-b]pyridazine-3-carboximidamide], in that order: 1.04 nM, 0.83 nM and 1.78 nM.
In the same order, the values of `CCN/C(=N\C#N)c1cnc2ccc(N3C[C@@H](F)C[C@@H]3c3cc(F)cc(SC)c3)nn12` [Example 3, (Z)-N′-cyano-N-ethyl-6-[(2R,4S)-4-fluoro-2-[5-fluoro-3-(methylsulfanyl)phenyl]pyrrolidin-1-yl]imidazo[1,2-b]pyridazine-3-carboximidamide] are 1.17 nM, 0.37 nM and 1.53 nM.
Take `CCN/C(=N\C#N)c1cnc2ccc(N3C[C@@H](F)C[C@@H]3c3cc(F)ccc3SC)nn12` [Example 4, (Z)-N′-cyano-N-ethyl-6-[(2R,4S)-4-fluoro-2-[5-fluoro-2-(methylsulfanyl)phenyl]pyrrolidin-1-yl]imidazo[1,2-b]pyridazine-3-carboximidamide]: the IC50 in experiment [1] worked out at 0.97 nM; in experiment [2] it was 0.23 nM; in experiment [3], 1 nM.
As for `CCCCN/C(=N\C#N)c1cnc2ccc(N3C[C@@H](F)C[C@@H]3c3cc(F)ccc3SC)nn12` [Example 5, (Z)-N-butyl-N′-cyano-6-[(2R,4S)-4-fluoro-2-[5-fluoro-2-(methylsulfanyl)phenyl]pyrrolidin-1-yl]imidazo[1,2-b]pyridazine-3-carboximidamide], the IC50 turned out to be 1.1 nM in experiment [1], 0.41 nM in experiment [2] and 1.61 nM in experiment [3].
In the same order, the values of `CSc1ccc(F)cc1[C@H]1C[C@H](F)CN1c1ccc2ncc(/C(=N/C#N)NC3CCCCC3)n2n1` [Example 6, (Z)-N′-cyano-N-cyclohexyl-6-[(2R,4S)-4-fluoro-2-[5-fluoro-2-(methylsulfanyl)phenyl]pyrrolidin-1-yl]imidazo[1,2-b]pyridazine-3-carboximidamide] are 1.52 nM, 0.7 nM and 1.91 nM.
For `CSc1ccc(F)cc1[C@H]1CCCN1c1ccc2ncc(/C(=N/C#N)NCc3cccc(O)c3)n2n1` [Example 7, (Z)-N′-cyano-6-[(2R)-2-[5-fluoro-2-(methylsulfanyl)phenyl]pyrrolidin-1-yl]-N-[(3-hydroxyphenyl)methyl]imidazo[1,2-b]pyridazine-3-carboximidamide], in that order: 1.44 nM, 1.55 nM and 3.16 nM.
